From PMC2731040 (BMC Clinical Pharmacology, 2009)

Molecular target: T1, MAO-B (Homo sapiens, UniProt P27338)
T1 construct: Twelve nondependent cocaine-experienced subjects received deuterium-labeled cocaine-d5 intravenously; from tissue; host or cells: whole body of living human subjects (in vivo); 24-hour urine analysed for PEA
T1 sequence (P27338 1-520): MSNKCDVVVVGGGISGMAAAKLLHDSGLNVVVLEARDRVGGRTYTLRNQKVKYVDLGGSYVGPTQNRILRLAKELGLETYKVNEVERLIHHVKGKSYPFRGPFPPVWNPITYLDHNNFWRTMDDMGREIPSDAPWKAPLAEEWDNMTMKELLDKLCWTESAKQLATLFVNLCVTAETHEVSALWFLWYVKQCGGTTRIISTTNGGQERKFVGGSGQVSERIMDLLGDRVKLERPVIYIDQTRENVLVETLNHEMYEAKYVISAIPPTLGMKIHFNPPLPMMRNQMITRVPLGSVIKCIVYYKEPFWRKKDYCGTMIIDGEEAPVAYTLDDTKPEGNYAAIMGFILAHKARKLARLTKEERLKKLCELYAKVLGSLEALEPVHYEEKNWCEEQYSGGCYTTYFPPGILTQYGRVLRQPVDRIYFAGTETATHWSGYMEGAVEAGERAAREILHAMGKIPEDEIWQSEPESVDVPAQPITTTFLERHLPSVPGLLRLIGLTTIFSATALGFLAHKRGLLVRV
Type: in vivo
Settings: Day 3–4 After Cocaine Preselegiline
Text: The interactions between MAO-A inhibitors and cocaine administered are largely unexplored. […] Therefore, measurement of dopaminergic and noradrenergic tone may be important in predicting toxic events. We measured dopaminergic tone with the surrogate marker of plasma HVA, the major brain metabolite of dopamine, and serum levels of prolactin, a hormone whose secretion is inhibited by dopamine. The surrogate for noradrenergic tone was urine concentrations of MHPG-S. In order to assess the degree of MAO-A and MAO-B inhibition, we assayed concentrations of a substrate of MAO-B, phenylethylamine (PEA). PEA would be expected to increase with MAO-B inhibition, and concentrations of MHPG-S, which is a metabolite of norepinephrine produced by MAO-A primarily in the brain [20], would be expected to decrease.
When subjects were in the GCRC, all urine was collected and volumes recorded. Following each cocaine infusion, urine was collected in fractions from 0 to 24, 24 to 48, and 48 to 72 hours (timed from the start of the infusion). Samples were then frozen at -70°C until analyzed. […] A qualitative screen for drugs of abuse was obtained every other day for the entire study period.

SMILES: COC(=O)[C@H]1[C@@H](OC(=O)c2ccccc2)C[C@@H]2CC[C@H]1N2C [Cocaine, cocaine]
- Total Amount of PEA Excreted in the 24 Hour Urine Collection: 0.003 ± 0.004 mg
